Measurements published in PubChem BioAssay AID2060506 (Molecular Pharmacology Branch, DTP, NCI, 2025).
pIC50: −log10 of the molar value.

Test system: 598228-144-R-J1-PDC complex spheroid viability
Experiment: Anticancer human tumor 598228-144-R-J1-PDC patient-derived serous endometrial adenocarcinoma cell line growth inhibition [GQUAD]
Conditions: for pIC50: curve of first compound; for viability, T/C: stronger effect = lower value; active = viability on the fitted dose curve at most 10% of control; inactive = the rest
Procedure, shortened: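 Tumor cells were grown as complex spheroids with HUVEC endothelial cells and mesenchymal stem cells as stroma. G-quadruplex stabilizers were combined with targeted agents over half-log dilutions from near the clinical Cmax, or from 10 microM.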

[1] = second compound 0.0316 µM, first compound 0.0316 µM
[2] = second compound 0.0316 µM, first compound 0.1 µM
[3] = second compound 0.0316 µM, first compound 0.316 µM
[4] = second compound 0.0316 µM, first compound 1 µM
[5] = second compound 0.0316 µM, first compound 3.16 µM
[6] = second compound 0.0316 µM, first compound 10 µM
[7] = second compound 0.1 µM, first compound 0.0316 µM
[8] = second compound 0.1 µM, first compound 0.1 µM
[9] = second compound 0.1 µM, first compound 0.316 µM
[10] = second compound 0.1 µM, first compound 1 µM
[11] = second compound 0.1 µM, first compound 3.16 µM
[12] = second compound 0.1 µM, first compound 10 µM
[13] = second compound 0.316 µM, first compound 0.0316 µM
[14] = second compound 0.316 µM, first compound 0.1 µM
[15] = second compound 0.316 µM, first compound 0.316 µM
[16] = second compound 0.316 µM, first compound 1 µM
[17] = second compound 0.316 µM, first compound 3.16 µM
[18] = second compound 0.316 µM, first compound 10 µM
[19] = second compound 1 µM, first compound 0.0316 µM
[20] = second compound 1 µM, first compound 0.1 µM
[21] = second compound 1 µM, first compound 0.316 µM
[22] = second compound 1 µM, first compound 1 µM
[23] = second compound 1 µM, first compound 3.16 µM
[24] = second compound 1 µM, first compound 10 µM
[25] = second compound 3.16 µM, first compound 0.0316 µM
[26] = second compound 3.16 µM, first compound 0.1 µM
[27] = second compound 3.16 µM, first compound 0.316 µM
[28] = second compound 3.16 µM, first compound 1 µM
[29] = second compound 3.16 µM, first compound 3.16 µM
[30] = second compound 3.16 µM, first compound 10 µM
[31] = second compound 10 µM, first compound 0.0316 µM
[32] = second compound 10 µM, first compound 0.1 µM
[33] = second compound 10 µM, first compound 0.316 µM
[34] = second compound 10 µM, first compound 1 µM
[35] = second compound 10 µM, first compound 3.16 µM
[36] = second compound 10 µM, first compound 10 µM
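Note: spheroids exposed to the agents for one week before reading.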
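Throughout, for viability, T/C: percent of vehicle DMSO control viability so 100% = untreated growth.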

O=C(NO)c1cnc(N2CCN(S(=O)(=O)c3ccc4ccccc4c3)CC2)nc1 + Cc1[nH]c2ccc(F)cc2c1-c1nc2c3cccnc3c3ncccc3c2[nH]1
6.91: pIC50 (second compound 1 µM)
active: viability, T/C [4] 0.4% | viability, T/C [5] 0.21% | viability, T/C [6] 0.21% | viability, T/C [10] 0.48% | viability, T/C [11] 0.3% | viability, T/C [12] 0.23% | viability, T/C [16] 0.67% | viability, T/C [17] 0.25% | viability, T/C [18] 0.34% | viability, T/C [22] 1% | viability, T/C [23] 0.31% | viability, T/C [24] 0.56% | viability, T/C [28] 0.37% | viability, T/C [29] 0.44% | viability, T/C [30] 0.51% | viability, T/C [34] 1.72% | viability, T/C [35] 0.78% | viability, T/C [36] 0.43%
6.90: pIC50 (second compound 10 µM)
6.61: pIC50 (second compound 0.1 µM)
> 7.50: pIC50 (second compound 3.16 µM)
6.73: pIC50 (second compound 0.0316 µM)
6.68: pIC50 (second compound 0.316 µM)
inactive: viability, T/C [1] 120% | viability, T/C [2] 80.4% | viability, T/C [3] 25.1% | viability, T/C [7] 99.4% | viability, T/C [8] 97.2% | viability, T/C [9] 37.5% | viability, T/C [13] 94.3% | viability, T/C [14] 90.2% | viability, T/C [15] 27.6% | viability, T/C [19] 62.3% | viability, T/C [20] 52.7% | viability, T/C [21] 28.8% | viability, T/C [25] 39.8% | viability, T/C [26] 29.3% | viability, T/C [27] 19.3% | viability, T/C [31] 67.4% | viability, T/C [32] 54.9% | viability, T/C [33] 27.5%

COc1cccc2c1C(=O)c1c(O)c3c(c(O)c1C2=O)CC(O)(C(=O)CO)CC3OC1CC(N)C(O)C(C)O1 (stereo not drawn) + Cc1cnc(CNC(=O)c2c(=O)c3ccc(N4CCCN(C)CC4)nc3n3c2sc2ccccc23)cn1
inactive: viability, T/C [1] 90.4% | viability, T/C [2] 73.9% | viability, T/C [3] 79.3% | viability, T/C [4] 43.3% | viability, T/C [7] 80.8% | viability, T/C [8] 56.7% | viability, T/C [9] 77.8% | viability, T/C [10] 42.5% | viability, T/C [13] 69.1% | viability, T/C [14] 64.6% | viability, T/C [15] 80.3% | viability, T/C [16] 44.1% | viability, T/C [19] 63.1% | viability, T/C [20] 67.6% | viability, T/C [21] 82.9% | viability, T/C [22] 23.8% | viability, T/C [25] 44.3% | viability, T/C [26] 61.6% | viability, T/C [27] 52.7% | viability, T/C [31] 45.2% | viability, T/C [32] 43.8% | viability, T/C [33] 20.7%
6.11: pIC50 (second compound 0.316 µM)
6.09: pIC50 (second compound 0.0316 µM)
active: viability, T/C [5] 0.82% | viability, T/C [6] 0.57% | viability, T/C [11] 1.19% | viability, T/C [12] 0.85% | viability, T/C [17] 0.37% | viability, T/C [18] 0.24% | viability, T/C [23] 0.6% | viability, T/C [24] 0.4% | viability, T/C [28] 0.52% | viability, T/C [29] 0.72% | viability, T/C [30] 0.28% | viability, T/C [34] 0.36% | viability, T/C [35] 0.41% | viability, T/C [36] 0.29%
6.47: pIC50 (second compound 3.16 µM)
6.28: pIC50 (second compound 1 µM)
6.13: pIC50 (second compound 0.1 µM)
> 7.50: pIC50 (second compound 10 µM)

C=CCn1c(=O)c2cnc(Nc3ccc(N4CCN(C)CC4)cc3)nc2n1-c1cccc(C(C)(C)O)n1 + Cc1[nH]c2ccc(F)cc2c1-c1nc2c3cccnc3c3ncccc3c2[nH]1
> 7.50: pIC50 (second compound 3.16 µM)
inactive: viability, T/C [1] 110% | viability, T/C [2] 102% | viability, T/C [3] 83.2% | viability, T/C [4] 48.3% | viability, T/C [5] 47.1% | viability, T/C [6] 52.8% | viability, T/C [7] 125% | viability, T/C [8] 84.6% | viability, T/C [9] 62.5% | viability, T/C [10] 53.4% | viability, T/C [11] 52.8% | viability, T/C [12] 55.9% | viability, T/C [13] 77.7% | viability, T/C [14] 75.4% | viability, T/C [15] 66.1% | viability, T/C [16] 48.9% | viability, T/C [17] 55.6% | viability, T/C [18] 62.4% | viability, T/C [19] 52% | viability, T/C [20] 59.8% | viability, T/C [21] 46.7% | viability, T/C [22] 48.7% | viability, T/C [23] 55% | viability, T/C [24] 74.5% | viability, T/C [25] 40.1% | viability, T/C [26] 35.1% | viability, T/C [27] 39.9% | viability, T/C [28] 44.6% | viability, T/C [29] 59% | viability, T/C [30] 62.3% | viability, T/C [31] 73.6% | viability, T/C [32] 54.6% | viability, T/C [33] 50.4% | viability, T/C [34] 42.4% | viability, T/C [35] 52.2% | viability, T/C [36] 57.7%
< 5.00: pIC50 (second compound 0.1 µM) | pIC50 (second compound 0.316 µM) | pIC50 (second compound 1 µM) | pIC50 (second compound 10 µM)
6.00: pIC50 (second compound 0.0316 µM)

CCCS(=O)(=O)Nc1ccc(F)c(C(=O)c2c[nH]c3ncc(-c4ccc(Cl)cc4)cc23)c1F + Cc1[nH]c2ccc(F)cc2c1-c1nc2c3cccnc3c3ncccc3c2[nH]1
5.07: pIC50 (second compound 0.0316 µM)
5.09: pIC50 (second compound 10 µM)
> 7.50: pIC50 (second compound 3.16 µM)
inactive: viability, T/C [1] 130% | viability, T/C [2] 118% | viability, T/C [3] 135% | viability, T/C [4] 115% | viability, T/C [5] 114% | viability, T/C [6] 39.2% | viability, T/C [7] 103% | viability, T/C [8] 112% | viability, T/C [9] 97.9% | viability, T/C [10] 106% | viability, T/C [11] 95.5% | viability, T/C [12] 43.6% | viability, T/C [13] 122% | viability, T/C [14] 126% | viability, T/C [15] 102% | viability, T/C [16] 103% | viability, T/C [17] 129% | viability, T/C [18] 51.6% | viability, T/C [19] 80.9% | viability, T/C [20] 71.9% | viability, T/C [21] 84.2% | viability, T/C [22] 76% | viability, T/C [23] 92.2% | viability, T/C [24] 48.8% | viability, T/C [25] 39.3% | viability, T/C [26] 48.6% | viability, T/C [27] 43.1% | viability, T/C [28] 56.4% | viability, T/C [29] 56.2% | viability, T/C [30] 31.1% | viability, T/C [31] 73.4% | viability, T/C [32] 65.1% | viability, T/C [33] 78.5% | viability, T/C [34] 70.4% | viability, T/C [35] 83.5% | viability, T/C [36] 45.1%
5.02: pIC50 (second compound 1 µM)
5.06: pIC50 (second compound 0.1 µM)
< 5.00: pIC50 (second compound 0.316 µM)
